We go through 7 compounds from PMC7156458, “Synthetic biology based construction of biological activity-related library of fungal decalin-containing diterpenoid pyrones” (Nature Communications, 2020).

Holding throughout (assay): cells
What all share (set-up): species or system JFCR39 human cancer cell lines; JFCR39 panel growth inhibition, sulforhodamine B total protein after 48 h

One experiment relates to A549. The conditions noted are these: Homo sapiens, A549, 48 h. How it is done: (§1) Supplementary Note 24. Antiproliferative effects across the panel of JFCR39 cancer cell lines A panel of 39 human cancer cell lines, termed JFCR39, were previously described13-16. Cells were grown in RPMI-1640 (FUJIFILM Wako Pure Chemical Corporation, Tokyo, Japan) supplemented with 1 µg mL-1 kanamycin and 5% (v/v) fetal bovine serum (Nichirei Biosciences Inc, Tokyo, Japan) and incubated at 37°C in a humidified atmosphere supplemented with 5% CO2. Drug efficacy was assessed as changes in total cellular protein after 48 hours of drug treatment using a sulforhodamine B assay. Assays were done in duplicate and the GI50 was calculated as described previously13,16. The antitumor profile across the JFCR39 panel, or fingerprints were then compared to reference database containing ~2000 compounds by COMPARE algorithm16,17. Initially, we evaluated new DDP analogues for their antiproliferative activities across the panel of 39 human cancer cell lines, JFCR39[50],[51].

A further experiment relates to DMS273. The conditions noted are these: for GI50: Homo sapiens, DMS-273, 48 h. The method, then: as §1
For the next experiment, the system named is HBC-5. The conditions noted are these: HBC5, 48 h. The method, then:
as §1

The test system of the next experiment is HCT-15. The note with it: for GI50: Homo sapiens, HCT-15, 48 h. The method, then:
as §1

Another experiment concerns KM-12. The conditions noted are these: Homo sapiens, KM12, 48 h. The method, then:
as §1

Another experiment concerns LOX-IMVI. The conditions noted are these: 48 h; for GI50: Homo sapiens, LOX IMVI. How it is done: as §1
For a further experiment, the system named is MDA-MB-231. The conditions noted are these: Homo sapiens, MDA-MB-231, 48 h. The method, then: as §1
The test system of a further experiment is NCI-H226. The note with it: for GI50: Homo sapiens, NCI-H226, 48 h. The method, then: as §1
The next experiment concerns NCI-H460. The note with it: for GI50: Homo sapiens, NCI-H460, 48 h. The method, then:
as §1

The next experiment deals with OVCAR-4. The conditions noted are these: Homo sapiens, OVCAR-4, 48 h. How it is done:
as §1

A further experiment deals with RXF-631L. The note with it: RXF-631L, 48 h. How it is done:
as §1

Another experiment has as its system SF-268. The note with it: Homo sapiens, SF-268, 48 h. The method, then: as §1
The next experiment has as its system SF-539. The note with it: Homo sapiens, SF-539, 48 h. How it is done: as §1
For another experiment, the system named is SK-OV-3. The note with it: Homo sapiens, SK-OV-3, 48 h. The method, then:
as §1

For the next experiment, the system named is U251. The note with it: Homo sapiens, U-251, 48 h. The method, then:
as §1

For a further experiment, the system named is DMS114. The note with it: for GI50: Homo sapiens, DMS-114, 48 h. How it is done:
as §1

In the next experiment the test system is MKN1. The note with it: Homo sapiens, MKN-1, 48 h. How it is done:
as §1

The test system of a further experiment is MKN45. The conditions noted are these: Homo sapiens, MKN-45, 48 h. How it is done:
as §1

For a further experiment, the system named is SNB-78. The note with it: Homo sapiens, SNB-78, 48 h. How it is done:
as §1

Setting [1] is: 48 h, inhibitor, Log GI50, 48 h.

By GI50 is commonly meant the concentration giving 50% growth inhibition.

On to `C=C1CCC2C(C)(CC(=O)C=C(C)C)C(O)CCC2(C)C1Cc1c(O)c(C)c(C)oc1=O` (centres unmarked) [Compound 7], for which the GI50 in the experiment with A549 is 66.7 µM; in the experiment with DMS273, 14.1 µM; in the experiment on HBC-5, 32.5 µM; with HCT-15, 55.6 µM; in the experiment with KM-12 it was 56 µM; in the experiment on LOX-IMVI it was 12.2 µM. For the same compound, the GI50 in the experiment on MDA-MB-231 was 58.3 µM; in the experiment with NCI-H226, 33.4 µM; in the experiment with NCI-H460, 11.6 µM; in the experiment on OVCAR-4, 35.8 µM; in the experiment with RXF-631L it was 65.9 µM; in the experiment with SF-268, 77.8 µM. In addition, the values for the 50% growth inhibitory concentration (GI50) in the experiment with SF-539, in the experiment with SK-OV-3 and in the experiment with U251 were 61.4 µM, 60.8 µM and 95.5 µM, respectively.

As to `C=C1CCC2C(C)(CCC=C(C)C)C(O)CCC2(C)C1Cc1c(OC)oc(C)c(C)c1=O` (centres unmarked) [Compound 11], the GI50 with DMS114 was 0.0565 µM; in the experiment with DMS273 it was 0.199 µM; in the experiment on HBC-5, 13.9 µM; in the experiment on HCT-15, 1.22 µM; in the experiment on MDA-MB-231, 22.6 µM; in the experiment on MKN1, 30.6 µM. For the same compound, the GI50 in the experiment with MKN45 is 18.6 µM; in the experiment on NCI-H226, 18.2 µM; with NCI-H460 it was 0.0865 µM; in the experiment on OVCAR-4, 9.06 µM; with RXF-631L, 19.3 µM; with SF-268, 14 µM. Further, the figures for the GI50 with SNB-78 and in the experiment with U251 were 21.9 µM and 22.8 µM, respectively.

Turning to `C=C1CCC2C(C)(CCC=C(C)C)C(O)CCC2(C)C1Cc1c(OC)oc(CO)c(C)c1=O` (centres unmarked) [Compound 12], the GI50 in the experiment on A549 is 6.24 µM; in the experiment with HBC-5 it was 8.73 µM; with KM-12 it was 12.9 µM; in the experiment with MDA-MB-231, 13.5 µM; with MKN1, 13.7 µM; in the experiment on MKN45, 13.4 µM. The GI50 is 9.93 µM in the experiment with OVCAR-4; 16.1 µM in the experiment with RXF-631L; 12.3 µM in the experiment on SF-268; 11.5 µM with SF-539; 12.6 µM in the experiment with SK-OV-3; 13.3 µM with SNB-78. In the experiment on U251, this compound had a GI50 of 15 µM. Further, the “Log GI50” value with DMS114 (setting [1]) is reported as -7.363 M; in the experiment on DMS273 (setting [1]) it was -7.063 M; in the experiment with HCT-15 (setting [1]), -5.533 M; in the experiment on LOX-IMVI (inhibitor, Log GI50, 48 h), -6.218 M; in the experiment on NCI-H226 (setting [1]), -4.935 M; with NCI-H460 (setting [1]), -7.132 M.

As for `C=C1CCC2C(C)(CCC=C(C)C)C(O)CCC2(C)C1Cc1c(OC)oc(CO)c(C(=O)OC)c1=O` (centres unmarked) [Compound 13], the GI50 with A549 is 19.8 µM; in the experiment with DMS114, 5.89 µM; with DMS273, 16.3 µM; in the experiment with HBC-5, 15.1 µM; in the experiment with HCT-15 it was 18.5 µM; with KM-12, 19.1 µM. The GI50 with LOX-IMVI was 13.7 µM; in the experiment on MDA-MB-231, 19.6 µM; in the experiment on MKN1, 18.8 µM; in the experiment with MKN45 it was 16.7 µM; in the experiment on NCI-H226, 16.9 µM; with NCI-H460, 11.2 µM. Besides, the GI50 is 15.5 µM with OVCAR-4; 16.8 µM with RXF-631L; 20.2 µM in the experiment on SF-268; 19.4 µM with SF-539; 16.3 µM in the experiment on SK-OV-3; 17.3 µM in the experiment with SNB-78. In the experiment on U251, this compound had a concentration for 50% growth inhibition (GI50) of 19.9 µM.

As to `C=C1CCC2C(C)(CCC=C(C)C)C(O)CCC2(C)C1Cc1c(OC)oc(C)c(C(=O)OC)c1=O` (centres unmarked) [Compound 14], the GI50 in the experiment on A549 was 11 µM; with DMS114, 0.0942 µM; with DMS273, 0.289 µM; in the experiment on HBC-5 it was 12.1 µM; with HCT-15, 10.2 µM; in the experiment with KM-12, 14.1 µM. Moreover, the GI50 in the experiment on LOX-IMVI is 10.8 µM; in the experiment with MDA-MB-231 it was 13.2 µM; in the experiment on MKN1 it was 16.1 µM; in the experiment with MKN45, 13 µM; in the experiment on NCI-H226, 11.7 µM; in the experiment on NCI-H460, 0.0735 µM. Also, the GI50 in the experiment on OVCAR-4 was 11.9 µM; in the experiment on RXF-631L it was 14.5 µM; in the experiment with SF-268 it was 12.8 µM; with SF-539, 12.4 µM; in the experiment with SK-OV-3, 13.6 µM; in the experiment on SNB-78 it was 14.7 µM. Moreover, halving of growth in the experiment on U251 (GI50) required 15 µM.

Take `C=C1CCC2C(C)(CC(=O)C=C(C)C)C(O)CCC2(C)C1Cc1c(OC)oc(CO)c(C)c1=O` (centres unmarked) [Compound 19]: the GI50 was 34.4 µM in the experiment with A549; 6.52 µM in the experiment with DMS114; 9.98 µM with DMS273; 31.6 µM in the experiment with HBC-5; 52.8 µM in the experiment on HCT-15; 56.2 µM with KM-12. Also, the GI50 in the experiment with LOX-IMVI is 13.6 µM; with MKN1, 78.2 µM; in the experiment on MKN45, 77.1 µM; in the experiment on NCI-H226, 19.1 µM; with NCI-H460, 6 µM; with OVCAR-4, 52.6 µM. Moreover, the GI50 with SF-268 is 69.5 µM; in the experiment on SF-539 it was 65.8 µM; with SK-OV-3 it was 83.2 µM; in the experiment on SNB-78, 36.2 µM; with U251 it was 69.7 µM.

`C=C1CC[C@@H]2[C@](C)(CC[C@H]3O[C@H](C=C(C)C)C[C@@]23C)[C@@H]1Cc1c(OC)oc(C)c(C)c1=O` [Compound 22, O-methylated higginsianin A]: the GI50 in the experiment on DMS114 was 0.0601 µM; with DMS273 it was 0.224 µM; in the experiment on HBC-5 it was 7.06 µM; with KM-12, 10.6 µM; in the experiment with LOX-IMVI, 1.17 µM; in the experiment on MKN1, 10.2 µM. Also, the GI50 is 10.4 µM in the experiment with MKN45; 3.79 µM with NCI-H226; 0.0807 µM with NCI-H460; 2.77 µM in the experiment with OVCAR-4; 8.05 µM in the experiment with RXF-631L; 8.18 µM with SF-268. Besides, the GI50 was 10.5 µM in the experiment with SF-539, 10.6 µM with SK-OV-3, 9.75 µM in the experiment on SNB-78 and 11.6 µM in the experiment with U251.
